Assay results as given in patent publication US20230284620A1, “MIXTURES OF PYRIDAZINES AS HERBICIDAL COMPOSITIONS” (SYNGENTA CROP PROTECTION AG, priority 2020, published 2023).
Values joined by “and” are separate entries in the source; they are usually repeats but may differ in a detail not shown here. Equal entries are not always repeated.

Columns and labels:
Assay in all cases: Post-emergence glasshouse herbicide test, visual phytotoxicity
Type in all cases: in vivo
Details in all cases: 13 days
[1] = system: Abutilon threophrasti (ABUTH)
Method: (§1) Seeds of Setaria faberi (SETFA), Echinochloa crus-galli (ECHCG), Digitaria sanguinalis (DIGSA), Lolium perenne (LOLPE), Alopecurus myosuroides (ALOMY), Chenopodium album (CHEAL), Ipomoea hederacea (IPOHE), Stellaria media (STEME), Abutilon threophrasti (ABUTH) and Amaranthus retroflexus (AMARE) were sown in standard sterilised soil in pots. After cultivation for 8 days under controlled conditions in a glasshouse (at 24/19° C., day/night; 16 hours light; no humidity control), the plants were sprayed at 500 l/Ha with an aqueous spray solution derived from the formulation of the technical active ingredients in a small amount of acetone and a solvent and emulsifier mixture referred to as IF50 (11.12% Emulsogen EL360 TM+44.44% N-methylpyrrolidone+44.44% Dowanol DPM glycol ether), to create a 50 g/l solution which was then diluted using 0.2% Genapol X080 (CAS Number: 9043-30-5) as diluent to give the desired final dose of test compound.
(§2) Where active ingredients were applied as mixtures, aqueous spray solutions were prepared as above, containing both active ingredients.
(§3) The test plants were then grown under controlled conditions in a glasshouse (at 24/18° C., day/night; 15 hours light; 50% humidity) and watered twice daily. After 13 days, the test was evaluated visually for percentage phytotoxicity to the plants (where 100=total damage to plant; 0=no damage to plant; and NC=not captured) when compared to control untreated plants. Two to four replicates were applied for each treatment in a randomised block test design.
(§4) 22., E=X+Y−(X*Y/100), where • X=average percent phytotoxicity of herbicide A when applied at a certain rate • Y=average percent phytotoxicity using herbicide B when applied at a certain rate • E=the expected effect of the mixture of herbicides A and B as calculated from the Colby formula.

[2] = system: Alopecurus myosuroides (ALOMY)
Method: as §1, §2, §3, §4

[3] = system: Amaranthus retroflexus (AMARE)
Method: as §1, §2, §3, §4

[4] = system: Chenopodium album (CHEAL)
Method: as §1, §2, §3, §4

[5] = system: Digitaria sanguinalis (DIGSA)
Method: as §1, §2, §3, §4

[6] = system: Echinochloa crus-galli (ECHCG)
Method: as §1, §2, §3, §4

[7] = system: Ipomoea hederacea (IPOHE)
Method: as §1, §2, §3, §4

[8] = system: Lolium perenne (LOLPE)
Method: as §1, §2, §3, §4

[9] = system: Setaria faberi (SETFA)
Method: as §1, §2, §3, §4

[10] = system: Stellaria media (STEME)
Method: as §1, §2, §3, §4

CS(=O)(=O)c1ccc(C(=O)C2C(=O)CCCC2=O)c(Cl)c1OCCC1OCCO1 [B-II]
percentage phytotoxicity ABUTH ([1]; 0.625 g/ha): 0% | percentage phytotoxicity ABUTH ([1]; 1.25 g/ha): 40% | percentage phytotoxicity ABUTH ([1]; 2.5 g/ha): 43% | percentage phytotoxicity ABUTH ([1]; 5 g/ha): 58% | percentage phytotoxicity ABUTH ([1]; 10 g/ha): 70% | percentage phytotoxicity ALOMY ([2]; 0.625 g/ha): 0% | percentage phytotoxicity ALOMY ([2]; 1.25 g/ha): 3% | percentage phytotoxicity ALOMY ([2]; 2.5 g/ha): 0% | percentage phytotoxicity ALOMY ([2]; 5 g/ha): 5% | percentage phytotoxicity ALOMY ([2]; 10 g/ha): 0% | percentage phytotoxicity AMARE ([3]; 0.625 g/ha): 0% | percentage phytotoxicity AMARE ([3]; 1.25 g/ha): 13% | percentage phytotoxicity AMARE ([3]; 2.5 g/ha): 25% | percentage phytotoxicity AMARE ([3]; 5 g/ha): 53% | percentage phytotoxicity AMARE ([3]; 10 g/ha): 58% | percentage phytotoxicity CHEAL ([4]; 0.625 g/ha): 5% | percentage phytotoxicity CHEAL ([4]; 1.25 g/ha): 15% | percentage phytotoxicity CHEAL ([4]; 2.5 g/ha): 30% | percentage phytotoxicity CHEAL ([4]; 5 g/ha): 55% | percentage phytotoxicity CHEAL ([4]; 10 g/ha): 65% | percentage phytotoxicity DIGSA ([5]; 0.625 g/ha): 0% | percentage phytotoxicity DIGSA ([5]; 1.25 g/ha): 5% | percentage phytotoxicity DIGSA ([5]; 2.5 g/ha): 0% | percentage phytotoxicity DIGSA ([5]; 5 g/ha): 10% | percentage phytotoxicity DIGSA ([5]; 10 g/ha): 3% | percentage phytotoxicity ECHCG ([6]; 0.625 g/ha): 0% | percentage phytotoxicity ECHCG ([6]; 1.25 g/ha): 5% | percentage phytotoxicity ECHCG ([6]; 2.5 g/ha): 0% | percentage phytotoxicity ECHCG ([6]; 5 g/ha): 8% | percentage phytotoxicity ECHCG ([6]; 10 g/ha): 5% | percentage phytotoxicity IPOHE ([7]; 0.625 g/ha): 5% | percentage phytotoxicity IPOHE ([7]; 1.25 g/ha): 15% | percentage phytotoxicity IPOHE ([7]; 2.5 g/ha): 20% | percentage phytotoxicity IPOHE ([7]; 5 g/ha): 45% | percentage phytotoxicity IPOHE ([7]; 10 g/ha): 55% | percentage phytotoxicity LOLPE ([8]; 0.625 g/ha): 0% | percentage phytotoxicity LOLPE ([8]; 1.25 g/ha): 5% | percentage phytotoxicity LOLPE ([8]; 2.5 g/ha): 0% | percentage phytotoxicity LOLPE ([8]; 5 g/ha): 5% | percentage phytotoxicity LOLPE ([8]; 10 g/ha): 0% | percentage phytotoxicity SETFA ([9]; 0.625 g/ha): 0% | percentage phytotoxicity SETFA ([9]; 1.25 g/ha): 3% | percentage phytotoxicity SETFA ([9]; 2.5 g/ha): 0% | percentage phytotoxicity SETFA ([9]; 5 g/ha): 5% | percentage phytotoxicity SETFA ([9]; 10 g/ha): 0% | percentage phytotoxicity STEME ([10]; 0.625 g/ha): 0% | percentage phytotoxicity STEME ([10]; 1.25 g/ha): 10% | percentage phytotoxicity STEME ([10]; 2.5 g/ha): 28% | percentage phytotoxicity STEME ([10]; 5 g/ha): 53% | percentage phytotoxicity STEME ([10]; 10 g/ha): 70%

Cc1ccc2ccc(C)c(C3C(=O)C(Cl)=NN(C)C3=O)c2c1 (centres unmarked) [A-I]
percentage phytotoxicity ABUTH ([1]; 0.625 g/ha): 6% | percentage phytotoxicity ABUTH ([1]; 2.5 g/ha): 21% | percentage phytotoxicity ABUTH ([1]; 5 g/ha): 58% and 55% | percentage phytotoxicity ABUTH ([1]; 10 g/ha): 60% | percentage phytotoxicity ALOMY ([2]; 0.625 g/ha): 0% | percentage phytotoxicity ALOMY ([2]; 1.25 g/ha): 0% | percentage phytotoxicity ALOMY ([2]; 2.5 g/ha): 0% | percentage phytotoxicity ALOMY ([2]; 5 g/ha): 9% and 0% | percentage phytotoxicity ALOMY ([2]; 10 g/ha): 21% | percentage phytotoxicity AMARE ([3]; 0.625 g/ha): 14% | percentage phytotoxicity AMARE ([3]; 1.25 g/ha): 44% | percentage phytotoxicity AMARE ([3]; 2.5 g/ha): 70% | percentage phytotoxicity AMARE ([3]; 5 g/ha): 74% | percentage phytotoxicity AMARE ([3]; 10 g/ha): 73% | percentage phytotoxicity CHEAL ([4]; 0.625 g/ha): 6% | percentage phytotoxicity CHEAL ([4]; 2.5 g/ha): 13% and 16% | percentage phytotoxicity CHEAL ([4]; 5 g/ha): 28% and 26% | percentage phytotoxicity DIGSA ([5]; 0.625 g/ha): 0% and 1% | percentage phytotoxicity DIGSA ([5]; 1.25 g/ha): 0% | percentage phytotoxicity DIGSA ([5]; 2.5 g/ha): 3% and 0% | percentage phytotoxicity DIGSA ([5]; 5 g/ha): 22% and 21% | percentage phytotoxicity ECHCG ([6]; 0.625 g/ha): 0% | percentage phytotoxicity ECHCG ([6]; 1.25 g/ha): 0% | percentage phytotoxicity ECHCG ([6]; 2.5 g/ha): 8% | percentage phytotoxicity ECHCG ([6]; 5 g/ha): 39% | percentage phytotoxicity ECHCG ([6]; 10 g/ha): 64% | percentage phytotoxicity IPOHE ([7]; 0.625 g/ha): 13% | percentage phytotoxicity IPOHE ([7]; 2.5 g/ha): 53% and 48% | percentage phytotoxicity IPOHE ([7]; 5 g/ha): 63% | percentage phytotoxicity IPOHE ([7]; 10 g/ha): 74% | percentage phytotoxicity LOLPE ([8]; 0.625 g/ha): 0% and 3% | percentage phytotoxicity LOLPE ([8]; 1.25 g/ha): 0% and 3% | percentage phytotoxicity LOLPE ([8]; 2.5 g/ha): 3% and 1% | percentage phytotoxicity LOLPE ([8]; 10 g/ha): 43% and 35% | percentage phytotoxicity SETFA ([9]; 0.625 g/ha): 0% | percentage phytotoxicity SETFA ([9]; 1.25 g/ha): 0% | percentage phytotoxicity SETFA ([9]; 5 g/ha): 43% | percentage phytotoxicity SETFA ([9]; 10 g/ha): 72% | percentage phytotoxicity STEME ([10]; 0.625 g/ha): 34% | percentage phytotoxicity STEME ([10]; 1.25 g/ha): 64% and 58% | percentage phytotoxicity STEME ([10]; 2.5 g/ha): 66% | percentage phytotoxicity STEME ([10]; 5 g/ha): 79% | percentage phytotoxicity STEME ([10]; 10 g/ha): 84%

COc1c(Cl)ccc(-c2nc(C(=O)OCc3ccccc3)c(Cl)c(N)c2F)c1F [B-I]
percentage phytotoxicity ABUTH ([1]; 0.625 g/ha): 78% | percentage phytotoxicity ABUTH ([1]; 1.25 g/ha): 80% | percentage phytotoxicity ABUTH ([1]; 2.5 g/ha): 83% | percentage phytotoxicity ABUTH ([1]; 5 g/ha): 90% | percentage phytotoxicity ABUTH ([1]; 10 g/ha): 85% | percentage phytotoxicity ALOMY ([2]; 0.625 g/ha): 0% | percentage phytotoxicity ALOMY ([2]; 1.25 g/ha): 0% | percentage phytotoxicity ALOMY ([2]; 2.5 g/ha): 0% | percentage phytotoxicity ALOMY ([2]; 5 g/ha): 0% | percentage phytotoxicity ALOMY ([2]; 10 g/ha): 5% | percentage phytotoxicity AMARE ([3]; 0.625 g/ha): 63% | percentage phytotoxicity AMARE ([3]; 1.25 g/ha): 70% | percentage phytotoxicity AMARE ([3]; 2.5 g/ha): 80% | percentage phytotoxicity AMARE ([3]; 5 g/ha): 80% | percentage phytotoxicity AMARE ([3]; 10 g/ha): 93% | percentage phytotoxicity CHEAL ([4]; 0.625 g/ha): 85% | percentage phytotoxicity CHEAL ([4]; 1.25 g/ha): 73% | percentage phytotoxicity CHEAL ([4]; 2.5 g/ha): 83% | percentage phytotoxicity CHEAL ([4]; 5 g/ha): 91% | percentage phytotoxicity CHEAL ([4]; 10 g/ha): 93% | percentage phytotoxicity DIGSA ([5]; 0.625 g/ha): 0% | percentage phytotoxicity DIGSA ([5]; 1.25 g/ha): 8% | percentage phytotoxicity DIGSA ([5]; 2.5 g/ha): 0% | percentage phytotoxicity DIGSA ([5]; 5 g/ha): 0% | percentage phytotoxicity DIGSA ([5]; 10 g/ha): 0% | percentage phytotoxicity ECHCG ([6]; 0.625 g/ha): 0% | percentage phytotoxicity ECHCG ([6]; 1.25 g/ha): 8% | percentage phytotoxicity ECHCG ([6]; 2.5 g/ha): 0% | percentage phytotoxicity ECHCG ([6]; 5 g/ha): 0% | percentage phytotoxicity ECHCG ([6]; 10 g/ha): 10% | percentage phytotoxicity IPOHE ([7]; 0.625 g/ha): 53% | percentage phytotoxicity IPOHE ([7]; 1.25 g/ha): 58% | percentage phytotoxicity IPOHE ([7]; 2.5 g/ha): 58% | percentage phytotoxicity IPOHE ([7]; 5 g/ha): 63% | percentage phytotoxicity IPOHE ([7]; 10 g/ha): 75% | percentage phytotoxicity LOLPE ([8]; 0.625 g/ha): 0% | percentage phytotoxicity LOLPE ([8]; 1.25 g/ha): 10% | percentage phytotoxicity LOLPE ([8]; 2.5 g/ha): 0% | percentage phytotoxicity LOLPE ([8]; 5 g/ha): 0% | percentage phytotoxicity LOLPE ([8]; 10 g/ha): 0% | percentage phytotoxicity SETFA ([9]; 0.625 g/ha): 0% | percentage phytotoxicity SETFA ([9]; 1.25 g/ha): 5% | percentage phytotoxicity SETFA ([9]; 2.5 g/ha): 0% | percentage phytotoxicity SETFA ([9]; 5 g/ha): 0% | percentage phytotoxicity SETFA ([9]; 10 g/ha): 5% | percentage phytotoxicity STEME ([10]; 0.625 g/ha): 63% | percentage phytotoxicity STEME ([10]; 1.25 g/ha): 65% | percentage phytotoxicity STEME ([10]; 2.5 g/ha): 80% | percentage phytotoxicity STEME ([10]; 5 g/ha): 85% | percentage phytotoxicity STEME ([10]; 10 g/ha): 90%
